“And” between values parts separate entries of the source, which are not always exact repeats. Equal entries are not always repeated.
Assays:
[1] = Octanol:water partition coefficients; type: physicochemical; conditions: 10 mM Tris pH 7.4; read-out: Octanol/Water Partition Coefficient ± SD (converted)
Description: One mg of each hypnotic was added to 10 ml of water buffered with 10 mM Tris (pH 7.4) and 0.5 ml or 1 ml of octanol. The mixture was stirred overnight and then centrifuged to more fully separate the organic and aqueous phases. The relative hypnotic concentrations in each phase (i.e. the partition coefficient) were determined by high performance liquid chromatography as described for blood.

[2] = Pharmacokinetics in rats, IV bolus and bolus plus infusion
[3] = In vitro metabolic half-life of hypnotics in rat blood; type: in vitro ADME; conditions: rat
Description: On the day of study, whole blood was drawn from the femoral venous catheters of 3 Sprague-Dawley rats (1-2 ml/rat), immediately anticoagulated with heparin (38 U), pooled, and stored on ice. A 1 ml aliquot of blood was warmed at 37° C. for 5 minutes and hypnotic (from a 40 mM in dimethyl sulfoxide stock solution) was added to a final concentration of 100 μM. After the desired incubation time, a 150 μl sample was removed and the metabolic reaction was quenched with 150 μl acetonitrile (Sigma-Aldrich, St. Louis, Mo.). Zero time point samples were prepared by adding 150 μl acetonitrile to blood prior to adding hypnotic (from a 4 mM in dimethyl sulfoxide stock solution). The quenched samples were centrifuged and the resultant supernatant separated and stored at −20° C. until analyzed. Hypnotic concentrations in thawed samples were determined by high performance liquid chromatography using a Varian Prostar system with a 4.6×250 mm Proto 300 C18 column (Nest Group, Southborough, Mass.) with the UV detector set at 240 nm.

beagle dogs = tested on: beagle dogs
Description: A pilot study was conducted in dogs to assess anesthesia induced by cyclopropyl-MOC-metomidate continuous infusion without a bolus induction dosing. Two dogs received cyclopropyl-MOC-metomidate as a 1 mg/kg/min IV infusion without prior bolus administration.
Anesthesia induction was determined using the methods described above.
Etomidate was administered to dogs at IV bolus doses ranging from 0.25 to 2 mg/kg. Anesthesia in the dogs was measured as described above. […] The bolus dose of 2 mg/kg was adopted to induce anesthesia prior to subsequent continuous infusions.
Propofol was administered to dogs as an IV bolus dose of 5 mg/kg to induce anesthesia followed by a continuous infusion at 0.4 mg/kg/min.

in vivo = conditions: rat
[4] = tested on: adrenal cortisol production
Description: Dexamethasone (0.01 mg/kg) was administered two hours before the first administration of ACTH and re-administered every 2 hours to maintain suppression. Dexamethasone pretreatment suppresses the hypothalamo-hypophyseal axis to prevent endogenous ACTH release and subsequent adrenocortical steroid secretion. […] Synthetic ACTH (Synacthen, 250 μg) was then administered at times after test substance administration to evaluate the effects of the test substance on the release of the adrenal steroid, cortisol.
All study methods described for Study 1 were repeated, except the ACTH administration at the end of infusion was omitted.

[5] = dogs, 4 mg/kg bolus or bolus plus 0.5 mg/kg/min for 30 or 120 minutes

With `COC(=O)C1(OC(=O)c2cncn2[C@H](C)c2ccccc2)CC1` [Cyclopropyl- methoxycarbonyl metomidate, cyclopropyl-methoxycarbonyl metomidate] the logD [1] was 2.62, the “first-phase decline of levels” value ([2]; IV bolus 4-16 mg/kg, first 5 minutes) was greater than 10 fold and the “venous blood concentration when sedated/anesthetized” value ([2]; bolus and continuous infusion, listed as cyclopropyl-MOC-metomidate) was > 250 ng/mL and > 0.8 μM. The “decline of levels after discontinuation of infusion” value ([2]; first 30 minutes after 60-minute infusion) was roughly 50 fold, the half-life at 100 μM ([3]; Sprague-Dawley, pooled heparinised whole blood, rat blood, 37° C., 100 μM, read-out: Blood Half-Life (95% CI)) was 0.57 min and the “in vitro metabolic half-life compared with methoxycarbonyl etomidate and etomidate” value [3] was “intermediate between those of methoxycarbonyl etomidate and etomidate”. The “minimum effective continuous infusion dose rate (infusion MED)” value (beagle dogs; dogs) was “approximately 0.5 mg/kg/min”, the emergence from anesthesia (beagle dogs; [5]) was “approximately 5 minutes” and the “recovery of apparently normal behavior” value (beagle dogs; [5]) was 10 to 12 min. The “minimally effective anesthetic dose (MED)” value (beagle dogs; dogs, IV bolus) was “approximately 1 mg/kg”, the duration of anesthesia (beagle dogs; dogs, bolus dose of 3 or 4 mg/kg) was 3 to 6 min and the “context dependence of recovery from anesthesia” value (beagle dogs; dogs, bolus vs 30- or 120-minute infusion) was “context-independent”. For the same compound, the “anesthesia onset after initiation of infusion” value (beagle dogs; two dogs, 1 mg/kg/min IV infusion without bolus) was 2.5 to 4.0 min, the concentration at 24 h (in vivo; both, iv) was less than 0.1 ng/mL and the half-life (in vivo; both, iv) was roughly 10 min. For the same compound, the half-life (in vivo) was roughly 20 min, the “ACTH-induced plasma cortisol response” value ([4]; Study 1, dogs, after 120-minute infusion) was “cortisol response to the first ACTH stimulus was inhibited, but the response to the second and third ACTH stimuli at 90 and 180 minute post-infusion were robust” and the “return of normal adrenal responsiveness after cessation of infusion” value ([4]; dogs) was 1.5 to 3 h.

Reference: patent US10154991B2, “Anesthetic compounds and related methods of use” (priority 2012, dated 2018)
